Molecular target: human ACMSD (Homo sapiens (Human), UniProt Q8TDX5)
Experiment: Human ACMSD-1 inhibitor assay (coupled 3-HAO/ACMSD, absorbance at 360 nm)
Conditions: read-out: hACMSD IC50; human ACMSD 6 μg/ml, 50 mM MES pH 6.0, 28° C., four-parameter dose-response fit
Description: A solution of 7.8 μg/ml 3-hydroxyanthranilate 3,4-dioxygenase (3-HAO) with protein dilution buffer (50 mM 4-Morpholineethanesulfonic acid “MES” pH 6.0) and a solution of 6 μg/ml Human 2-amino-3-carboxymuconate-6-semialdehyde decarboxylase (human ACMSD) with protein dilution buffer (50 mM MES pH 6.0) were prepared separately. A serial 2-fold dilution of test compounds, from 512 nM until 0.5 nM were prepared.
The plate was placed into a SpectraMax Plus 384 Microplate Reader, Molecular Devices with the temperature set to 28° C. The absorbance at 360 nm for 10 min with 10 seconds interval was monitored and recorded.
To a 96-well plate was added 50 μl of 6 μg/ml human ACMSD with series concentrations of the test compound. The absorbance was recorded at 360 nm for 10 min with 10 seconds interval. The data was analyzed in GraphPad Prism 6. A four-parameter dose-response curve was fitted. “Hill Slope” was constrained between −0.5 and −3, and such constrains was indicated when applied.

Sequence of human ACMSD (Q8TDX5 whole entry): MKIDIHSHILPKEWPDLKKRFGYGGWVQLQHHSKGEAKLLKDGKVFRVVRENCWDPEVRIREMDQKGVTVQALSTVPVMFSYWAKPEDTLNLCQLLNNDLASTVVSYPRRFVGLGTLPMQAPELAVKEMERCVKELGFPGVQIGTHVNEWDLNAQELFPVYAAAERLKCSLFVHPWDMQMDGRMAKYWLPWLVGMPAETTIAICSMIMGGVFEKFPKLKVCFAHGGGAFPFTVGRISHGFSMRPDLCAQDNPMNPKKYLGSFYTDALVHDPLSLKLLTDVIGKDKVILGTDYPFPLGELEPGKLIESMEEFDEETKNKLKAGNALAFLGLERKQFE

Row | Compound | IC50 [nM]
1 | N#Cc1c(Cc2ccccc2)cc(=O)[nH]c1SCc1nn[nH]n1 [Ex. 53, 2-(((2H-tetrazol-5-yl)methyl)thio)-4-benzyl-6-oxo-1,6-dihydropyridine-3-carbonitrile] | 2
2 | N#Cc1c(C(F)(F)F)cc(=O)[nH]c1SCc1cc(C(=O)O)ccc1F [Ex. 19, 3-((3-cyano-6-oxo-4-(trifluoromethyl)-1,6-dihydropyridin-2-ylthio)methyl)-4-fluorobenzoic acid] | 230
3 | N#Cc1c(C(F)(F)F)cc(=O)[nH]c1SCc1cc(-c2nnn[nH]2)ccc1Cl [Ex. 45, 2-(2-chloro-5-(1H-tetrazol-5-yl)benzylthio)-6-oxo-4-(trifluoromethyl)-1,6-dihydropyridine-3-carbonitrile] | 4
4 | N#Cc1c(C2CCCCC2)cc(=O)[nH]c1SCc1cccc(C(=O)O)c1 [Ex. 24, 3-(((3-cyano-4-cyclohexyl-6-oxo-1,6-dihydropyridin-2-yl)thio)methyl)benzoic acid] | 470
5 | N#Cc1c(SCC(=O)O)[nH]c(=O)c(C#N)c1C(F)(F)F [Ex. 39, 2-((3,5-dicyano-6-oxo-4-(trifluoromethyl)-1,6-dihydropyridin-2-yl)thio)acetic acid] | > 10000
6 | N#Cc1c(C(F)(F)F)cc(=O)[nH]c1SC(F)C(=O)O (stereo not shown) [Ex. 27, 2-(3-cyano-6-oxo-4-(trifluoromethyl)-1,6-dihydropyridin-2-ylthio)-2-fluoroacetic acid] | 9
7 | N#Cc1c(C(F)F)cc(=O)[nH]c1SCC(=O)O [Ex. 4, 2-((3-cyano-4-(difluoromethyl)-6-oxo-1,6-dihydropyridin-2-yl)thio)acetic acid] | 118
8 | Cc1c(C(F)(F)F)c(C#N)c(SCC(=O)O)[nH]c1=O [Ex. 5, 2-((3-cyano-5-methyl-6-oxo-4-(trifluoromethyl)-1,6-dihydropyridin-2-yl)thio)acetic acid] | 26
9 | N#Cc1c(-c2cccnc2)cc(=O)[nH]c1SCc1cccc(C(=O)O)c1 [Ex. 37, 3-(((3′-cyano-6′-oxo-1′,6′-dihydro-[3,4′-bipyridin]-2′-yl)thio)methyl)benzoic acid] | 50
10 | COCc1cc(=O)[nH]c(SCC(=O)O)c1C#N [Ex. 11, 2-(3-cyano-4-(methoxymethyl)-6-oxo-1,6-dihydropyridin-2-ylthio)acetic acid] | 9000
11 | N#Cc1c(-c2ccccn2)cc(=O)[nH]c1SCc1cccc(C(=O)O)c1 [Ex. 32, 3-(((3′-cyano-6′-oxo-1′,6′-dihydro-[2,4′-bipyridin]-2′-yl)thio)methyl)benzoic acid] | 170
12 | N#Cc1c(-c2ccncc2)cc(=O)[nH]c1SCc1cccc(C(=O)O)c1 [Ex. 26, 3-(((3-cyano-6-oxo-1,6-dihydro-[4,4′-bipyridin]-2-yl)thio)methyl)benzoic acid] | 29
13 | CCc1cc(=O)[nH]c(SCC(=O)O)c1C#N [Ex. 9, 2-((3-cyano-4-ethyl-6-oxo-1,6-dihydropyridin-2-yl)thio)acetic acid] | 3400
14 | Cc1cccc(-c2cc(=O)[nH]c(SCc3cccc(-c4nnn[nH]4)c3)c2C#N)c1 [Ex. 55, 2-((3-(1H-tetrazol-5-yl)benzyl)thio)-6-oxo-4-(m-tolyl)-1,6-dihydropyridine-3-carbonitrile] | 3
15 | COc1ccc(C(=O)O)cc1CSc1[nH]c(=O)cc(C(F)(F)F)c1C#N [Ex. 16, 3-(((3-cyano-6-oxo-4-(trifluoromethyl)-1,6-dihydropyridin-2-yl)thio)methyl)-4-methoxybenzoic acid] | 530
16 | N#Cc1c(-c2ccccc2)cc(=O)[nH]c1SCc1cccc(C(=O)O)c1 [Ex. 15, 3-(((3-cyano-6-oxo-4-phenyl-1,6-dihydropyridin-2-yl)thio)methyl)benzoic acid] | 56
17 | N#Cc1c(SCc2cccc(C(=O)O)c2)[nH]c(=O)c(F)c1-c1ccccc1 [Ex. 30, 3-(((3-cyano-5-fluoro-6-oxo-4-phenyl-1,6-dihydropyridin-2-yl)thio)methyl)benzoic acid] | 70
18 | N#Cc1c(SCc2cccc(C(=O)O)c2)[nH]c(=O)c(Cl)c1-c1ccccc1 [Ex. 41, 3-(((5-chloro-3-cyano-6-oxo-4-phenyl-1,6-dihydropyridin-2-yl)thio)methyl)benzoic acid] | 3
19 | Cc1cccc(-c2cc(=O)[nH]c(SCc3cccc(C(=O)O)c3)c2C#N)c1 [Ex. 25, 3-(((3-cyano-6-oxo-4-(m-tolyl)-1,6-dihydropyridin-2-yl)thio)methyl)benzoic acid] | 6
20 | N#Cc1c(C2CC2)cc(=O)[nH]c1SCC(=O)O [Ex. 14, 2-((3-cyano-4-cyclopropyl-6-oxo-1,6-dihydropyridin-2-yl)thio)acetic acid] | 7300
21 | N#Cc1c(-c2ccccc2)cc(=O)[nH]c1SCc1cccc(C(=O)O)n1 [Ex. 33, 6-(((3-cyano-6-oxo-4-phenyl-1,6-dihydropyridin-2-yl)thio)methyl)picolinic acid] | 190
22 | CC(C)(C)c1cc(=O)[nH]c(SCC(=O)O)c1C#N [Ex. 10, 2-((4-(tert-butyl)-3-cyano-6-oxo-1,6-dihydropyridin-2-yl)thio)acetic acid] | 4600

Row | Compound | IC50 [nM]
23 | CC(C)c1cc(=O)[nH]c(SCC(=O)O)c1C#N [Ex. 13, 2-((3-cyano-4-isopropyl-6-oxo-1,6-dihydropyridin-2-yl)thio)acetic acid] | 2600
24 | N#Cc1c(C(F)(F)F)cc(=O)[nH]c1SC(F)(F)C(=O)O [Ex. 28, 2-((3-cyano-6-oxo-4-(trifluoromethyl)-1,6-dihydropyridin-2-yl)thio)-2,2-difluoroacetic acid] | 20
25 | N#Cc1c(C(F)(F)F)cc(=O)[nH]c1SCc1cc(C(=O)O)ccc1Cl [Ex. 3, 4-chloro-3-((3-cyano-6-oxo-4-(trifluoromethyl)-1,6-dihydropyridin-2-ylthio)methyl)benzoic acid] | 158
26 | N#Cc1c(C(F)(F)F)cc(=O)[nH]c1SCc1cccc(C(=O)O)c1 [Ex. 8, 3-((3-cyano-6-oxo-4-(trifluoromethyl)-1,6-dihydropyridin-2-ylthio)methyl)benzoic acid] | 1610
27 | Cc1ccc(C(=O)O)cc1CSc1[nH]c(=O)cc(C(F)(F)F)c1C#N [Ex. 44, 3-((3-cyano-6-oxo-4-(trifluoromethyl)-1,6-dihydropyridin-2-ylthio)methyl)-4-methylbenzoic acid] | 510
28 | CC(Sc1[nH]c(=O)cc(C(F)(F)F)c1C#N)C(=O)O (stereo not shown) [Ex. 7, 2-(3-cyano-6-oxo-4-(trifluoromethyl)-1,6-dihydropyridin-2-ylthio)propanoic acid] | 271
29 | N#Cc1c(-c2ccsc2)cc(=O)[nH]c1SCc1cccc(-c2nnn[nH]2)c1 [Ex. 54, 2-(3-(1H-tetrazol-5-yl)benzylthio)-6-oxo-4-(thiophen-3-yl)-1,6-dihydropyridine-3-carbonitrile] | 9
30 | N#Cc1c(-c2ccccc2)cc(=O)[nH]c1SCC(=O)O [Ex. 12, 2-((3-cyano-6-oxo-4-phenyl-1,6-dihydropyridin-2-yl)thio)acetic acid] | 7000
31 | N#Cc1c(C(F)(F)F)cc(=O)[nH]c1SCc1cccc(-c2nnn[nH]2)c1 [Ex. 42, 2-(3-(1H-tetrazol-5-yl)benzylthio)-6-oxo-4-(trifluoromethyl)-1,6-dihydropyridine-3-carbonitrile] | 32
32 | Cc1c(C(F)(F)F)c(C#N)c(SCc2nnn[nH]2)[nH]c1=O [Ex. 47, 2-(((1H-tetrazol-5-yl)methyl)thio)-5-methyl-6-oxo-4-(trifluoromethyl)-1,6-dihydropyridine-3-carbonitrile] | 7
33 | COc1c(C(F)(F)F)c(C#N)c(SCC(=O)O)[nH]c1=O [Ex. 46, 2-(3-cyano-5-methoxy-6-oxo-4-(trifluoromethyl)-1,6-dihydropyridin-2-ylthio)acetic acid] | 8
34 | N#Cc1c(C(F)(F)F)cc(=O)[nH]c1SCc1nnn[nH]1 [Ex. 43, 2-(((1H-tetrazol-5-yl)methyl)thio)-6-oxo-4-(trifluoromethyl)-1,6-dihydropyridine-3-carbonitrile] | 4
35 | N#Cc1c(SCc2nnn[nH]2)[nH]c(=O)c(F)c1C(F)(F)F [Ex. 48, 2-((1H-tetrazol-5-yl)methylthio)-5-fluoro-6-oxo-4-(trifluoromethyl)-1,6-dihydropyridine-3-carbonitrile] | 2
36 | N#Cc1c(-c2cccs2)cc(=O)[nH]c1SCc1cccc(C(=O)O)c1 [Ex. 23, 3-(((3-cyano-6-oxo-4-(thiophen-2-yl)-1,6-dihydropyridin-2-yl)thio)methyl)benzoic acid] | 7
37 | N#Cc1c(-c2ccsc2)cc(=O)[nH]c1SCc1cccc(C(=O)O)c1 [Ex. 36, 3-((3-cyano-6-oxo-4-(thiophen-3-yl)-1,6-dihydropyridin-2-ylthio)methyl)benzoic acid] | 160
38 | N#Cc1c(C(F)(F)F)cc(=O)[nH]c1SCC(=O)O [Ex. 1, 2-((3-cyano-6-oxo-4-(trifluoromethyl)-1,6-dihydropyridin-2-yl)thio)acetic acid] | 6
39 | N#Cc1c(SCC(=O)O)[nH]c(=O)c(Cl)c1C(F)(F)F [Ex. 38, 2-(5-chloro-3-cyano-6-oxo-4-(trifluoromethyl)-1,6-dihydropyridin-2-ylthio)acetic acid] | 11
40 | Cc1c(-c2ccccc2)c(C#N)c(SCc2cccc(C(=O)O)c2)[nH]c1=O [Ex. 31, 3-((3-cyano-5-methyl-6-oxo-4-phenyl-1,6-dihydropyridin-2-ylthio)methyl)benzoic acid] | > 10000
41 | N#Cc1c(CC2CCCCC2)cc(=O)[nH]c1SCc1cccc(C(=O)O)c1 [Ex. 35, 3-(((3-cyano-4-(cyclohexylmethyl)-6-oxo-1,6-dihydropyridin-2-yl)thio)methyl)benzoic acid] | 200
42 | N#Cc1c(C(F)(F)F)cc(=O)[nH]c1SCc1cccc(C(=O)O)c1F [Ex. 22, 3-(((3-cyano-6-oxo-4-(trifluoromethyl)-1,6-dihydropyridin-2-yl)thio)methyl)-2-fluorobenzoic acid] | 830
43 | N#Cc1c(Cc2ccccc2)cc(=O)[nH]c1SCC(=O)O [Ex. 18, 2-((4-benzyl-3-cyano-6-oxo-1,6-dihydropyridin-2-yl)thio)acetic acid] | 36

Reference: patent US11780812B2, “Oxopyridine derivatives useful as aminocarboxymuconate semialdehyde decarboxylase (ACMSD) inhibitors” (OrsoBio, Inc., priority 2016, dated 2023)
